13 compounds from patent US8247540B2, “Caged nucleotides and oligonucleotides and their application” (priority 2008, dated 2012) can be followed below.

Where “and” joins values, the source holds several entries; their conditions need not be identical. Equal values may be shown once. Strand notation (5' to 3'): a small letter for the sugar, then the base; units joined by * are phosphorothioate-linked, units joined directly phosphodiester-linked; [ ] holds rarer units or linkages, { } end groups; capitals alone tell only the bases. [cagedT] = caged thymidine: thymidine bearing a photolabile caging group, removed by UV irradiation at 365 nm; [cageT] = thymidine carrying a photolabile caging group (caged thymidine), removed by 365 nm UV light; [NPOM-T] = NPOM-caged (photocaged) thymidine; d = 2'-deoxy (DNA)

Data set [1] deals with Renilla luciferase reporter gene. Kind of data set: Renilla luciferase antisense assay in NIH 3T3 cells (dual reporter). It counts as cell-based, mouse. As to conditions: for antisense activity / effect on the luciferase signal: NIH 3T3, without UV irradiation. From the text:
The error bars represent the standard deviation of three independent experiments.
These antisense oligomers were transfected into mouse fibroblast cells (NIH 3T3) together with a dual reporter system encoding Renilla luciferase and firefly luciferase as a transfection control.

The subject of data set [2] is complementary RNA sequence (5′ UCCAGAACAAAGGAAACG 3′). Kind of data set: Melting temperature of PS DNA/RNA hybrids before and after irradiation. It counts as binding. The note with it: PS DNA/RNA hybrid; for Mp/° C. +UV: after irradiation (5 min, 365 nm, 23 W); for Mp/° C. −UV: before irradiation. The text has this:
The capacity of the three and four caging groups to inhibit hybridization of the caged PS DNA oligomer to the complementary RNA sequence (5′ UCCAGAACAAAGGAAACG 3′) [SEQ ID NO 14] was examined. Hybridization was monitored on a BioRad MyiQ RT-PCR thermocycler by conducting a sequence of 3 heating and cooling cycles. […] Complete hybridization was restored upon a 5-minute irradiation at 365 nm for both caged analogs (Table 2).

Data set [3] can be described thus: Stability of the caging group to PCR conditions. It counts as physicochemical. As to conditions: elevated temperatures required for PCR.
Data set [4] relates to chordin. Kind of data set: Light-regulation of morpholino activity in zebrafish embryos. Type of data set: in vivo. How it is done: Percentages represent the frequency of the pictured phenotype in live fish. A) Non-injected embryo (100%). B) Injection of the non-caged Chordin-0 MO (100%). C) Injection of the caged MO (Chordin-4) −UV irradiation (80%). D) Injection of the caged MO (Chordin-4) +UV irradiation for 60 sec at 365 nm (100%). Identical amounts were injected in each experiment. The expanded blood island (arrows) is indicative of the chordin phenotype.
Injections with the non-caged and caged morpholino oligomers containing four […] monomers targeting chordin were conducted. Zebrafish embryos were injected into the yolk sac at the 1-4 cell stage with ˜1 nl of 500 μm caged Chordin-4 morpholino (5′ AT*CCACAGCAGCCCCT*CCAT*CAT*CC 3′ [SEQ ID NO 2]; T* denotes the caged thymidine; containing 0.15% phenol red to verify injection). Immediately after injection, half of the injected embryos were exposed to 365 nm UV light for 60 sec. The other half was protected from light. Half of the uninjected control embryos were also exposed to 365 nm UV for 60 sec, and no phenotypic differences between ±UV were detected. All embryos were grown at 28° C. for about 28 hours before their phenotypes were photographed. The chordin gene induces dorsalization of the developing embryo and injection of an anti-chordin MO induces a phenotype resembling chordin null-mutant embryos by displaying abnormally shaped somites, an expanded blood island (see arrows in FIG. 5), an abnormal tail fin, and a reduced head (see FIG. 5B compared to the non-injected fish shown in FIG. 5A).

Data set [5] concerns non-caged complement (5′ CGAACCTGGTCGAAATCAG 3′). Kind of data set: Melting temperatures of caged and non-caged PCR primers with complementary DNA. Type of data set: binding. The note with it: for Mp/° C. +UV: after 8 minutes irradiation at 365 nm; for Mp/° C. −UV: before UV, 1 μM primer and complementary DNA; for melting temperature depression: single caging group, versus P1, −UV. As for the experimental part:
The DNA oligomers P1-P7, consisting of 19 nucleotides, a typical length for PCR primers, and containing 0-4 caged thymidines have been synthesized (Table 1). These primers were than analyzed for their annealing and melting properties in the presence of a complementary oligonucleotide.
Melting curves were measured on a BioRad MyiQ RT-PCR thermocycler by conducting a sequence of 3 heating and cooling cycles (1 μM of both primer and complementary DNA with 12.5 μL iQ SYBR Green Supermix to a total volume of 25 μL; 40° C. to 80° C. with a 0.5° C./min ramp). The melting temperatures were determined to be 65.3° C. (P1), 62.1° C. (P2), 54.3° C. (P3), 55.5° C. (P4), and 50.0° C. (P6). […] This effect was less pronounced in P2, perhaps due to the caged T's close proximity to the 5′ terminus, which lead to a lower level of interference with the hybridization of neighboring nucleotides. With the incorporation of additional caging groups in P4-P7, melting temperatures decreased further. However, addition of a single caged thymidine close to the 5′ terminus of P3 had no effect in P4. […] In order to ensure a complete removal of the photolabile group, each primer was irradiated for 8 minutes at 365 nm, and then analyzed in the same melting temperature assay.

Data set [6] deals with DNA template (plasmid DNA). In words: Light-triggered polymerase chain reaction (activation and deactivation). It counts as biochemical. As for the experimental part:
The DNA template (1.5 ng/μL of plasmid DNA) was incubated in the presence of P5 and a reverse primer (5′[…]-GT 3′, [SEQ ID NO 11] 1 μM each; the same reverse primer was used in all PCRs) with nucleotide triphosphates (dNTPs, 0.3 mM each), in Taq Reaction Buffer (10 mM Tris-HCl, 50 mM. KCl, 1.5 mM MgCl2, pH 8.3) and water. Taq DNA Polymerase (3 units/μL) was added to initiate the reaction. Prior to placement in a PCR thermocycler (Eppendor Mastercycler) the reaction was either irradiated for 8 minutes at 365 nm, or maintained in the dark. An initial denaturation at 95° C. was performed, followed by 40 cycles of 95° C. (30 sec), 50° C. (30 sec), and 72° C. (1 min), with a final extension at 72° C. (2 min). The reactions were conducted in triplicate, visualized on a 1% agarose gel, and quantitated (all DNA was quantified by band integration in ethidium bromide stained agarose gels using Image Quant 5.2). […] This experiment represented the first example of a light-activated PCR. While we initially employed irradiation prior to the thermal cycling, temporal control was also achieved by initiating the reaction through irradiation at a specific timepoint. Here, an identical reaction with UV irradiating at cycle 15 was conducted. Prior to irradiation, no PCR product can be detected in reactions conducted with the caged primer P5. In contrast, the non-caged primer P1 lead to the expected exponential amplification.
After achieving photochemical control of the activation of PCR at a specific time point, the possibility to switch-off PCR activity via light irradiation was examined. This was accomplished by designing a self-complementary primer which was predisposed to form a hairpin, rather than act as a PCR primer. By installing caging groups on the complementary portion of this sequence it was possible to block self-hybridization, which enabled the polymerization reaction. The PCR was then stopped by removing the photoactive groups, leading to hairpin formation and primer deactivation (FIG. 7). In order to achieve photochemical deactivation, an appropriate hairpin primer P8 was designed (5′ […] 3′) [SEQ ID NO. 12], and a photocaged analog P9 was synthesized (5′ […] 3′) [SEQ ID NO. 13]. […] However, in the absence of light irradiation the caged hairpin primer P9 was successful in acting as a primer, yielding 137 ng of PCR product (not shown).
Light-regulatory mechanisms were also employed in a temporally controlled fashion by irradiating the caged primer after 10 cycles of PCR. The non-caged primer P8 was used as a control, as it formed a hairpin immediately, blocking Taq DNA polymerase and inhibiting amplification. Because the caged primer P9 was able to bind to the DNA template, amplification occurred. […] At the same point, amplification continued in the non-irradiated reaction with P9.

The mark [7] stands for this setting: activation experiment, no UV irradiation, 40 cycles.

“3-Caged: phosphorothioate DNA 5′ CGTTT*CCTTT*GTTCT*GGA 3′, T* NPOM-caged thymidine, SEQ ID NO 17 (DNA dC*dG*dT*dT*d[NPOM-T]*dC*dC*dT*dT*d[NPOM-T]*dG*dT*dT*dC*d[NPOM-T]*dG*dG*dA)”: the “antisense activity / effect on the luciferase signal” value in data set [1] was “completely inhibited the antisense activity”. For the same compound, in data set [2], the “Mp/° C. +UV” value worked out at 39.2 ± 0.6 °C.
For “5. Control: control phosphorothioate DNA 5′ TCCAGAACAAAGGAAACG 3′, SEQ ID NO 15 (DNA dT*dC*dC*dA*dG*dA*dA*dC*dA*dA*dA*dG*dG*dA*dA*dA*dC*dG)”, the “antisense activity / effect on the luciferase signal” value in data set [1] is given as “no effect on the luciferase signal”. Besides, in data set [2], the “Mp/° C. −UV” value is recorded as “No hybridization was detected”.
“7. Non-caged: non-caged phosphorothioate DNA targeting Renilla luciferase, 5′ CGTTTCCTTTGTTCTGGA 3′, SEQ ID NO 16”: in data set [1] (NIH 3T3, no UV), the “down-regulation of the Renilla luciferase signal” value came out at 70%. Besides, in data set [2], the “Mp/° C. +UV” value was found to be 39.3 ± 0.8 °C and the “Mp/° C. −UV” value came out at 39.5 ± 0.5 °C. Further, the “Mp/° C. −UV” value in data set [2] (listed as non-caged PS DNA) was “approximately 39 °C”.
Regarding `Cc1cn(C2CC(O)C(CO)O2)c(=O)n(COC(C)c2cc3c(cc2[N+](=O)[O-])OCO3)c1=O` (stereo not drawn) [monomeric caged thymidine, Caged thymidine], the “stability of the caging group to PCR conditions” value in data set [3] is “unaffected by the elevated temperatures”.
Turning to “Chordin-4: caged morpholino 5′ AT*CCACAGCAGCCCCT*CCAT*CAT*CC 3′, T* caged thymidine, four 21 monomers (DNA ATCCACAGCAGCCCCTCCATCATCC; morpholino, caged thymidines, chemistry not fully specified)”, the “frequency of the pictured phenotype in live fish” value in data set [4] (+UV irradiation for 60 sec at 365 nm, chordin phenotype pictured) is recorded as 100%; in data set [4] (−UV irradiation, wild-type phenotype pictured) it was 80%. The “morpholino antisense activity (phenotype)” value in data set [4] (protected from light, about 28 hours at 28° C.) was “completely inactive”.
As for “P1: non-caged 19 nucleotide PCR primer 5′ CTGATTTCGACCAGGTTCG 3′, SEQ ID NO 3 (DNA, backbone not given here) [reference compound]”, in data set [5], the “Mp/° C. +UV” value was determined as 65.0 ± 0.8 °C; the “Mp/° C. −UV” value is 65.3 °C and 65.3 ± 0.3 °C. Also, the PCR product entry in data set [6] (setting [7]) is “approximately 140 ng”.
“P2: primer 5′ CTGATTTCGACCAGGTTCG 3′ with a single caged thymidine close to the 5′ terminus, SEQ ID NO 4 (DNA, [cageT] at 2, backbone not given here)”: in data set [5], the “Mp/° C. +UV” value amounted to 64.1 ± 0.2 °C; the “Mp/° C. −UV” value was 62.1 °C and 62.1 ± 0.7 °C; the melting temperature depression was determined as 3.2 °C.
As to “P3: primer 5′ CTGATTTCGACCAGGTTCG 3′ with a single caged thymidine, SEQ ID NO 5 (DNA, [cageT] at 7, backbone not given here)”, in data set [5], the “Mp/° C. +UV” value was 64.1 ± 0.8 °C; the “Mp/° C. −UV” value was 54.3 °C and 54.3 ± 1.1 °C; the melting temperature depression was 11.0 °C.
Consider “P4: P3 with an additional caged thymidine close to the 5′ terminus, SEQ ID NO 6 (DNA CTGATTTCGACCAGGTTCG; DNA, [cageT] at 2, 7, backbone not given here)”, for which, in data set [5], the “Mp/° C. +UV” value turned out to be 63.8 ± 0.3 °C; the “Mp/° C. −UV” value is 55.5 °C and 55.5 ± 0.5 °C.
For the compound “P5: primer with three caging groups distributed throughout the DNA oligomer, SEQ ID NO 7 (DNA CTGATTTCGACCAGGTTCG; DNA, [cageT] at 2, 7, 17, backbone not given here)”, in data set [5], the “Mp/° C. +UV” value was determined as 64.2 ± 0.2 °C and the “Mp/° C. −UV” value is listed as “No melting temperatures could be measured”. In addition, the DNA amplification entry in data set [6] (UV irradiation at cycle 15) was “increases exponentially”. Also, in data set [6] (activation experiment, irradiated 8 minutes at 365 nm before cycling, 40 cycles), the PCR product entry is “comparable amounts of PCR product as found in the reaction with P1”. Besides, the PCR product entry in data set [6] (setting [7]) is given as “only trace amounts”.
For the compound “P6: primer with a cluster of three caged thymidines, SEQ ID NO 8 (DNA CTGATTTCGACCAGGTTCG; DNA, [cageT] at 5, 6, 7, backbone not given here)”, in data set [5], the “Mp/° C. +UV” value amounted to 64.5 ± 0.5 °C; the “Mp/° C. −UV” value is 50.0 °C and 50.0 ± 1.0 °C.
For “P7: caged primer 5′ CTGATTTCGACCAGGTTCG 3′, SEQ ID NO 9, probably four caged thymidines (DNA, [cagedT] at 2, 5, 7, 17, backbone not given here; PCR primer)”, in data set [5], the “Mp/° C. +UV” value came to 64.2 ± 0.3 °C and the “Mp/° C. −UV” value is “No melting temperatures could be measured”.
With “P8: non-caged hairpin primer 5′ GGTCAGTAAATTGTTTTTCAATTTACTGACCG 3′, SEQ ID NO 12 (hairpin primer, further chemistry not given here) [reference compound]”, the PCR product entry in data set [6] (deactivation (hairpin primer) experiment, no light irradiation, 25 cycles) is “very little PCR product”.
